The test system of series [1] is albino hairless guinea pigs Crl:IAF(HA)-hrBR (Outbred). Description: Photosafety study: primary irritancy, phototoxicity, contact hypersensitivity, photoallergy. It counts as in vivo, guinea pig. To be noted: XMP.629 up to 10 mg/mL (1.0%). The protocol:
XMP.629 was evaluated for photoallergic potential administered topically to hairless guinea pigs. Primary irritancy, phototoxicity (photoirritancy) and contact hypersensitivity were also evaluated in these studies.
Male CrI:IaF(HA)-hrBR (Outbred) albino hairless guinea pigs were assigned to 7 groups, five guinea pigs per group as outlined below.
XMP.629 was formulated as a gel. The phototoxicity comparator article was 8-methoxypsoralen (8-MOP) in methanol at concentrations of 0.1, 0.3 and 1.0 mg/mL. The contact hypersensitivity and photoallergy comparator article was 3,3′,4′,5′-tetrachlorosalicy/anilide (TCSA) in acetone:corn oil (4:1, v/v) at challenge concentrations of 0 (Vehicle), 10, and 30 mg/mL. The reagent and reagent vehicle were Freund's complete adjuvant (FCA) and sterile water for injection, USP, respectively.
The formulation administration and ultraviolet radiation (UVR) exposure regimens for each group in the study were as follows.
For all phases of the study, test articles, test article vehicles, comparator articles and comparator article vehicles were administered (0.3 ml) using a Hilltop chamber affixed to the guinea pig with dental dam overlaid with a Velcro® wrap for approximately 2.0 hours per administration.
Primary irritancy potential of the test articles and test article vehicles was evaluated in Group 1 guinea pigs. Three chambers (one per formulation dosage) were attached to the dorsal skin along the midline. After the administration period the chamber patches were removed and the application sites were gently wiped.
Cutaneous phototoxicity potential of the test articles and test article vehicles was evaluated in Group 2 guinea pigs. Group 3 guinea pigs were used as a comparator group with elicitation of phototoxicity with 8-MOP. Three chambers (one per formulation dosage) were attached to the dorsal skin along the midline and occluded. After the administration period the chamber patches were removed and the application sites were gently wiped. After wiping, Group 2 and 3 guinea pigs were exposed to solar-simulated UVR for approximately 2.25 hours.
For induction of contact hypersensitivity and photoallergy, a nuchal area of skin approximately 2.5 cm^2 was defined by intradermal injections with a formulation of sterile water and FCA in guinea pigs in Groups 4 through 7 under isoflurane/oxygen anesthesia. This skin area was then tape stripped five times. Formulations were topically administered via chambers as described in the study design table using one chamber attached to the nuchal area. After removal of the chambers the application sites were gently wiped and the nuchal site of Group 6 and 7 guinea pigs was exposed to UVR as above. Appropriate procedures for guinea pigs (with the exception of injection with FCA) were repeated once daily on Days 3, 5, 8, 10 and 12 of the induction phase.
On Day 22 (contact hypersensitivity and photoallergy challenge), formulations were topically applied to appropriate sites on guinea pigs in Groups 4 through 7 as described above. Three chambers (one per formulation dosage) were attached to the dorsal skin along the midline and occluded. The chambers were then removed and the application sites were gently wiped. Guinea pigs in Groups 6 and 7 were then exposed to UVR as above.
Observations for general appearance and clinical signs were made weekly throughout the study. […] Body weights were recorded at initiation of dosing for each phase, weekly thereafter and at sacrifice. […]

The subject of series [2] is marginal ear vein of rabbits. Description: Intravenous efficacy tests in rabbits (local vein findings). The format is in vivo, rabbit. Conditions: multiple infusions, 1-20 mg/kg/day. The method, then: A series of efficacy studies with XMP.629 was conducted where slow IV push or short term (5 to 30 min) intravenous infusions were given through the marginal ear vein at 0.1 to 1.0 mg/mL to rabbits, some of whom were previously infected with Staphylococcus aureus, E. coli, or other bacteria, or Candida albicans. […] Due to the swelling, the veins could not be infused after two to five administrations of 1-20 mg/kg/day of XMP.629. […] Secondary changes in the surrounding tissue included edema, regional fibroplasia, acute hemorrhage, and regional hemorrhagic necrosis, as well as the presence of inflammation. These macroscopic changes were similar to the changes observed in the tail veins of rats and mice in other efficacy studies conducted.

The subject of a further series is E. coli 07:K1. Description: Acute peritonitis model (survival). It counts as in vivo, mice. Conditions: 10 mg/kg intraperitoneally; 1.4×10^7 CFU E. coli 07:K1; seven days. The method, then:
In additional studies in an acute peritonitis model, mice were challenged intraperitoneally with 1.4×10^7 CFU E. coli 07:K1 and treated intraperitoneally with XMP.629 at 1, 3, or 10 mg/kg or saline. Mice were observed twice daily and mortality was recorded for seven days. Statistical comparisons between the treatment groups and saline were performed using a Chi Square test. […] At 10 mg/kg, 87% protection was observed. In additional studies, XMP.629 was safely administered at a dose of 20 mg/kg intravenously.

Series [3] concerns CD [Crl:CD (SD) IGS BR] rats. Kind of series: Rat acute oral toxicity test. The format is in vivo. The protocol: XMP.629 was evaluated for acute toxicity following a single dose by oral gavage. The study consisted of three treatment groups of five male and five female CD [CrI:CD (SD) IGS BR] rats which received XMP.629 as a gel at concentrations of 0.1, 0.5, and 1.0% of XMP.629 respectively at a volume of 10 mL/kg. An additional group of five rats per sex served as the control and received control gel at the same volume. All rats were observed twice daily for morbidity, mortality, injury, and availability of food and water. Body weights were measured pretest and at different intervals during the study for all rats; observations for clinical signs were conducted pretest and at approximately 2 and 4 hours following the dose; and daily clinical observations were conducted daily until Day 14. At study termination, gross necropsies were conducted and macroscopic observations were recorded for all animals.

For series [4] the following is noted: 72 hours following dosing.

SMILES strings stand for the structures. Non-standard residues stand in square brackets, D forms with d. Residues, ends and D or L forms follow the SMILES beside them. d1Nal = N[C@H](Cc1cccc2ccccc12)C(=O)O

In the case of `CC(C)C[C@@H](NC(=O)[C@H](N)CCCCN)C(=O)N[C@H](Cc1ccccc1)C(=O)N[C@H](CCCNC(=N)N)C(=O)N[C@H](Cc1cccc2ccccc12)C(=O)N[C@H](CCC(N)=O)C(=O)N[C@H](C)C(=O)N[C@H](CCCCN)C(=O)N[C@H](Cc1cccc2ccccc12)C(N)=O` [XMP.629, NH2-lys-leu-phe-arg-(3-(1-naphthyl)-ala)-gln-ala-lys-(3-(1-naphthyl)-ala)-CONH2] (H-[dK][dL][dF][dR][d1Nal][dQ][dA][dK][d1Nal]-NH2), in series [1], the contact hypersensitivity result was “did not cause skin changes” and the photoallergy result is “did not cause skin changes”. Further, the phototoxicity result in series [1] (single topical administration and UVR) is “did not cause skin changes”. Further, the primary irritation entry in series [1] (single topical administration, 0.3 mL/skin site) is “did not cause skin changes”. In addition, the “gross macroscopic changes at the infused vein” value in series [2] is “swelling and hemorrhage into the perivascular space”. For the same compound, the “protection (survival)” value in the series with E. coli 07:K1 amounted to 87%. For the same compound, the clinical observation result in series [3] (1.0% XMP.629, four hours after administration, four males and one female, resolved by Day 2) is “Decreased activity”. In series [3] (concentrations of 0.1 or 0.5% XMP.629), the clinical signs entry is “No clinical signs of systemic toxicity”. In addition, the minimum lethal dose in series [3] (single oral gavage of gel, 10 mL/kg (10 mg/mL)) is on record as more than 1 % XMP.629. The “radioactivity remained in the body (carcass)” value in series [4] worked out at 79.7%.
